Target: T1, Lysine-specific demethylase 4C (Homo sapiens, UniProt Q9H3R0)
T1 sequence (Q9H3R0 whole entry): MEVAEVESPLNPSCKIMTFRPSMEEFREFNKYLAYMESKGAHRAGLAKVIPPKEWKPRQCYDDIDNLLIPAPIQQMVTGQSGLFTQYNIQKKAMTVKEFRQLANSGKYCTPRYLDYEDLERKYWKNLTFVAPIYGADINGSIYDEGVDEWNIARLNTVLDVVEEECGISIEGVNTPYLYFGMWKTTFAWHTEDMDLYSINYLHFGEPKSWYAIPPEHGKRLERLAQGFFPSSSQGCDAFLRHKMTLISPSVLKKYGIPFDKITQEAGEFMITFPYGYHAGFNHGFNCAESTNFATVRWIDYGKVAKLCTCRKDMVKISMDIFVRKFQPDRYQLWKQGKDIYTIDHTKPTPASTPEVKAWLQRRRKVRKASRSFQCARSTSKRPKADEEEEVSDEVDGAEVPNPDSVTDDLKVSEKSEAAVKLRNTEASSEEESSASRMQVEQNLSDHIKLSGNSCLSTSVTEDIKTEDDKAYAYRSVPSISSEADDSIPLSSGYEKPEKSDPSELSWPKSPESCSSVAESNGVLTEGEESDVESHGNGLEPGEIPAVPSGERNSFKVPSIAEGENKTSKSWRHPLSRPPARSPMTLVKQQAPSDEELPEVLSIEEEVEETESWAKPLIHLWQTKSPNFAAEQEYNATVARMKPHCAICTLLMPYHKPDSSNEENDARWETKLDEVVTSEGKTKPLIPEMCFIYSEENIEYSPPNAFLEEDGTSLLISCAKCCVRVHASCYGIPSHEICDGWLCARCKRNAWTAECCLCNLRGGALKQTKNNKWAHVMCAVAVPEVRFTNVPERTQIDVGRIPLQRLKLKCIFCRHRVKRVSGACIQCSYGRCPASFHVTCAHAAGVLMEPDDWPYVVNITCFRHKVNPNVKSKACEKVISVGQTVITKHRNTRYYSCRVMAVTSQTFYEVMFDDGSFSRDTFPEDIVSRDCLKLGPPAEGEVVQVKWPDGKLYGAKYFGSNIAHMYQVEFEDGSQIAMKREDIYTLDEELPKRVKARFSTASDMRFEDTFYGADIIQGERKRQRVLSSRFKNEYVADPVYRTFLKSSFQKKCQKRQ
Assay: JMJD2C Assay
Method: The ability of test compounds to inhibit the activity of JMJD2C was determined in 384-well plate-format under the following reaction conditions: 0.3 nM JMJD2C, 300 nM H3K9me3-biotin labeled peptide (Anaspec cat #64360), 2 μM alpha-ketoglutaric acid in assay buffer of 50 mM HEPES, pH 7.3, 0.005% Brij35, 0.5 mM TCEP, 0.2 mg/ml BSA, 50 μM sodium L-ascorbate, and 2 μM ammonium iron(II) sulfate. Reaction product was determined quantitatively by TR-FRET after the addition of detection reagent Phycolink Streptavidin-allophycocyanin (Prozyme) and Europium-anti-di-methylated histone H3 lysine 9 (H3K9me2) antibody (PerkinElmer) in the presence of 5 mM EDTA in LANCE detection buffer (PerkinElmer) at a final concentration of 50 nM and 1 nM, respectively.The assay reaction was initiated by the following: 2 μl of the mixture of 900 nM H3K9me3-biotin labeled peptide and 6 μM alpha-ketoglutaric acid with 2 μl of 11-point serial diluted inhibitor in 3% DMSO were added to each well of the plate, followed by the addition of 2 μl of 0.9 nM JMJD2C to initiate the reaction. […] Plates were read by EnVisionMultilabel Reader in TR-FRET mode (excitation at 320 nm, emission at 615 nm and 665 nm) after 1 hr incubation at room temperature. A ratio was calculated (665/615) for each well and fitted to determine inhibition constant (IC50).

| SMILES | IC50 [nM] |
| --- | --- |
| COc1ccc(N2CCN(C)CC2)cc1N(C)c1ccc(Oc2nc(O)c3ccncc3n2)cc1C [US10202381, Example 145] | < 100 |
| Cc1cc(Oc2nc(O)c3ccncc3n2)ccc1N(C)c1cc(N2CCN(C)CC2)ccc1C [US10202381, Example 147] | < 100 |

Source: BindingDB's records for patent US10202381 (Celgene Quanticel Research Inc, 2019)
